IC50 data for 1 molecule are collected here from US20050282818A1, “Ubiquitin ligase inhibitors” (Rigel Pharmaceuticals, Inc., priority 2004, published 2005).

Where two headings read alike, the source gives them in different places. Some results are limits rather than exact numbers.

For one assay, the system named is U2OS cells. Nature of the assay: Cell proliferation PAD assay, U2OS. Format: cell-based. Conditions: Homo sapiens, 6pt, 48 hours. An excerpt: (§1) Table 3 illustrates the inhibitory activity of the compounds of the invention determined by the PAD assay described above in a number of cell types. Apoptosis was not
(§2) Cell lines used are available from American Type Culture Collection (ATCC), for example, cell cultures containing A549 (ATCC# CCL-185), HeLa (ATCC# CCL-2), HCT116 ATTC# CCL-247), and H1299 (ATCC# CRL-5803) cells were maintained in T175 flasks following the ATCC recommended media and handling procedures. […] A 20,000 cells/ml solution was made for plating. Cells were plated in black Packard 96 well plates by placing 100 μl per well (2,000 cells per well). […] The definitions of the cell types used are as follows: A549 is lung carcinoma; HI 299 is non-small cell lung carcinoma; HI 155 is non-small cell lung carcinoma; AsPC-1 is pancreatic adenocarcinoma; Caov-3 is ovarian adenocarcinoma; COLO 205 is colorectal adenocarcinoma; DLD-1 colorectal adenocarcinoma; HCT116 is colorectal carcinoma; DU 145 is prostate carcinoma; ES-2 is ovarian clear cell carcinoma; H460 is large cell lung carcinoma; HELA is cervical adenocarcinoma; MIA PaCa-2 is pancreatice carcinoma; OVCAR-3 is ovarian adenocarcinoma; OVCAR8 is ovarian carcinoma; PC3 is prostate adenocarcinoma; SK-OV-3 is ovarian adenocarcinoma; SU86.86 is pancreatic carcinoma; TOV-21G is avarian clear cell carcinoma; U2OS is bone osteosarcoma; is ASPC-I is pancreatic adenocarcinoma; BXPC-3 is pabcreatic adenocarcinoma; HL60 is promyeloblast promyelocytic leukemia; K562 is bone marrow chronic myelogenous leukemia; L1210 is mouse lymphocytic leukemia; MOLT3 is T lymphoblast acute lymphoblastic leukemia; MOLT4 is T lymphoblast acute lymphoblastic leukemia; SW620 is colorectal adenocarcinoma; THP-1 is monocyte acute monocytic leukemia; U937 is histiocytic lymphoma; and UACC-257 is melanoma.
(§3) Compounds and additional media were added 24 hours after cell plating. A compound master plate was created with concentrations 500 times greater than the final concentration added to the cells. All compound testing was done in duplicate using 6.3 fold dilutions starting with 10 mM. All outside wells (and 4 internal wells) were DMSO controls. Taxol and at least one additional control were run on all plates. Three microliters of the compound master plate were added to deep well blocks containing 750 μl of RPMI media. One hundred microliters were transferred from the compound/media deep well blocks to the plated cells resulting in a 500 fold dilution of the compounds. Cells were grown at 37° C., 5% CO2 for 48 hours.
(§4) Cells to be analyzed by photography were fixed and stained. One hundred microliters of media were removed and 100 μl of 9.3% formamide was added to each well. Plates were left on the benchtop for 45 minutes. A staining solution containing 1.55 μl of 1 mg/ml DAPI added to 18.75 ml PBS was warmed for 15 minutes at 37° C. The cells were aspirated prior to washing with 100 μl of PBS. Seventy microliters of PBS were aspirated and 170 μl of the DAPI solution were added to each well of fixed cells. Plates were left at room temperature for one hour then aspirated and washed twice with 100 μl of PBS. The stained cells were left at 4° C. for a minimum of 16 hours before photographic analysis with Array Scan II (Cellomics). Analysis of the photographic images to determine numbers of live cells (proliferation), apoptotic cells and dead cells, were according to the methods described in U.S. Utility patent application Ser. No. 10/652,440, which incorporated herein in its entirety.

The subject of a further assay is A549 cells. Nature of the assay: Cell proliferation PAD assay, A549. Format: cell-based. Conditions: Homo sapiens, 48 hours. Summed up: (§5)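 Proliferation was scored by DAPI imaging of fixed cells, counting live, apoptotic and dead cells, after 48 h compound exposure at 37 °C, 5% CO2. Compound, dosed in duplicate 24 h post-plating (2,000 cells/well), came from 6.3-fold dilutions of a 10 mM stock diluted 500-fold.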

The next assay has as its system HELA cells. Nature of the assay: Cell proliferation PAD assay, HeLa. In kind it is cell-based. Conditions: Homo sapiens, 6pt, 48 hours.
Source text: as §1, §2, §3, §4

A further assay has as its system H1299 cells. The assay is described as follows: Cell proliferation PAD assay, H1299. In kind it is cell-based. Conditions: Homo sapiens, 48 hours. Summed up: as §5
Another assay concerns HCT116 cells. Nature of the assay: Cell proliferation PAD assay, HCT116. Format: cell-based. Conditions: Homo sapiens, 48 hours.
Source text: as §1, §2, §3, §4

The subject of a further assay is MIA PaCa-2 cells. The assay is described as follows: Cell proliferation PAD assay, MIA PaCa-2. In kind it is cell-based. Conditions: Homo sapiens, Miapaca2 cells, 9pt, 48 hours.
Source text: as §1
(§6) Cell lines used are available from American Type Culture Collection (ATCC), for example, cell cultures containing A549 (ATCC# CCL-185), HeLa (ATCC# CCL-2), HCT116 ATTC# CCL-247), and H1299 (ATCC# CRL-5803) cells were maintained in T175 flasks following the ATCC recommended media and handling procedures. […] A 20,000 cells/ml solution was made for plating. Cells were plated in black Packard 96 well plates by placing 100 μl per well (2,000 cells per well). […]
(§7) Cells to be analyzed by photography were fixed and stained. […]

Another assay deals with T1, TRAF6/Uev1A/Ubc13 (Homo sapiens, UniProt Q9Y4K3).
T1 sequence (Q9Y4K3 1-522): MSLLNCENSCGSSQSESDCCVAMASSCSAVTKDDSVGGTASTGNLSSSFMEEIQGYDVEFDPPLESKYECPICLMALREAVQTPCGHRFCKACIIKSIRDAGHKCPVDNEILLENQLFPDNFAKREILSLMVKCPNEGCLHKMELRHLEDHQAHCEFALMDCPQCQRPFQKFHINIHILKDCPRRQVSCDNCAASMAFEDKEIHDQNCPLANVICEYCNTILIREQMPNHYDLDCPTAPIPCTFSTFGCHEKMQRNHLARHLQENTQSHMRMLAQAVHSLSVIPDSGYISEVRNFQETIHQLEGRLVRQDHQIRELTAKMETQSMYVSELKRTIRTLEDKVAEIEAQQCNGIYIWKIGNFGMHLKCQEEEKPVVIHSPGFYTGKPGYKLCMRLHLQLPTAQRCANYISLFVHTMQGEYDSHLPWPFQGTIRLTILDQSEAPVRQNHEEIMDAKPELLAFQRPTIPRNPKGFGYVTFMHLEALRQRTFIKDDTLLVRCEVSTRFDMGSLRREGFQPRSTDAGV
The assay is described as follows: TRAF6/Uev1A/Ubc13 plate-based ubiquitin ligase assay. Format: biochemical. Summed up:
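Ligase activity was read as luminescence from anti-Flag/HRP detection of Flag-ubiquitin bound to casein-blocked Ni-plates alongside His-ubiquitin after a 1 h room-temperature reaction. Buffer: 62.5 mM Tris pH 7.5, 6.25 mM MgCl2, 1.0 mM DTT, 2 μM ATP; E1, Uev1a/Ubc13 and TRAF6 added last to start. IC50s derived across compound concentrations.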

A further assay concerns DLD-1 cells. Nature of the assay: Cell proliferation PAD assay, DLD-1. Format: cell-based. Conditions: Homo sapiens, DLD1 cells, 6pt, 48 hours.
Source text: as §1, §2, §3, §4

The test system of a further assay is COLO 205 cells. The assay is described as follows: Cell proliferation PAD assay, COLO 205. Format: cell-based. Conditions: Homo sapiens, Colo205 cells, 9pt, 48 hours.
Source text: as §1, §6, §7

Take `O=S(=O)(Nc1ccc2cn[nH]c2c1)c1c(Cl)ccc2nonc12` [compound 219, 5-chloro-N-1H-indazol-6-yl-2,1,3-benzoxadiazole-4-sulfonamide]: the IC50 was less than 1000 nM in the assay with U2OS cells; 1000 to 20000 nM with A549 cells (3pt, read-out: A549 3pt); no less than 20000 nM in the assay on A549 cells (6pt, read-out: A549 6pt); no less than 20000 nM in the assay on HELA cells; 1000 to 20000 nM with H1299 cells (NCI-H1299, 3pt, read-out: H1299 3pt); less than 1000 nM in the assay with H1299 cells (NCI-H1299, 6pt, read-out: H1299 6pt). Moreover, the IC50 in the assay with HCT116 cells (HCT-116, 6pt, read-out: HCT116 6pt) was less than 1000 nM; in the assay on HCT116 cells (HCT-116, 9pt, read-out: HCT116 9pt), less than 1000 nM; with MIA PaCa-2 cells, less than 1000 nM; on TRAF6/Uev1A/Ubc13, 1000 to 20000 nM; in the assay with DLD-1 cells, less than 1000 nM; with COLO 205 cells it was 1000 to 20000 nM.
